Entries after “also recorded” stand apart in the source; their conditions may differ.
Tests used:
Sprague-Dawley rats [1] = test: ST segment elevation (ECG) during final permanent LAD occlusion (FPO), rat repetitive ischemia protocol (RIP) arteriogenesis model; assay type: in vivo
Sprague-Dawley rats [2] = test: Ventricular arrhythmias during FPO, Lown classification and VPB score; conditions: rat, in vivo
Sprague-Dawley rats [3] = test: Infarct size by TTC staining after final permanent occlusion; assay type: in vivo, rat
arteriogenesis = conditions: nitroglycerin: administered continuously; cited from earlier work

O=[N+]([O-])OCC(CO[N+](=O)[O-])O[N+](=O)[O-] [NTG, nitroglycerin]
ST elevation / ECG parameters during FPO compared to controls (in words) (Sprague-Dawley rats [1]; rat, in vivo): significantly attenuated ST elevation | arrhythmias during FPO compared to controls (in words) (Sprague-Dawley rats [2]): decreased serious arrhythmias | infarct volume decreased compared to the control group (Sprague-Dawley rats [3]; rat, in vivo): more than 50% | effect on arteriogenesis described in the art (in words) (arteriogenesis): not able to induce angiogenesis (neovascularisation) or arteriogenesis

O=[N+]([O-])O[C@H]1CO[C@H]2[C@@H]1OC[C@H]2O[N+](=O)[O-] [ISDN, isosorbide dinitrate]
ST elevation / ECG parameters during FPO compared to controls (in words) (Sprague-Dawley rats [1]; rat, in vivo): non-significantly decreased; also recorded: decreases in ST elevation | arrhythmias during FPO compared to controls (in words) (Sprague-Dawley rats [2]): less arrhythmias | infarct size / infarct volume compared to other groups (in words) (Sprague-Dawley rats [3]; rat, in vivo): reduced infarct volumes

CC(=O)Oc1ccccc1C(=O)O [ASA, acetyl salicylic acid]
ST elevation / ECG parameters during FPO compared to controls (in words) (Sprague-Dawley rats [1]; 5 DAYS RIP): impairment of ECG parameters | infarct size / infarct volume compared to other groups (in words) (Sprague-Dawley rats [3]; 5 DAYS RIP): increase of infarct volumes | effect on arteriogenesis described in the art (in words) (arteriogenesis): inhibitor of arteriogenesis

CC(=O)Oc1ccccc1C(=O)O [ASA+NTG-PLACEBO]
VPB-Score (Sprague-Dawley rats [2]): 5.50 | rats with class IIIa arrhythmias (Lown) during FPO (Sprague-Dawley rats [2]): 16.7% | rats with class IVb arrhythmias (Lown) during FPO (Sprague-Dawley rats [2]): 83.3% | Infarct size (percentage of the area of the left ventricle) (Sprague-Dawley rats [3]; rat, in vivo): 13.92 ±1.71%

— patent publication US11166931B2, “Induction of arteriogenesis with an NO (nitric oxide) donor” (G. Pohl-Boskamp GmbH & Co. KG, priority 2012, dated 2021)
